These results are taken from patent US10034862B2, “Solid pharmaceutical composition comprising amlodipine and losartan” (HANMI PHARM. CO., LTD., priority 2014, dated 2018).

Series [1] can be described thus: Dissolution of losartan at different pH (gelation). The series is classed as physicochemical. How it is done: However, when the combined formulation of amlodipine and losartan was prepared, undesirable gelation of losartan was observed. […] As such, in the combined formulation of amlodipine and losartan, amlodipine may also be trapped in the losartan gel due to the gelation of losartan, resulting in a decrease in dissolution rate.

For series [2] the following is noted: cited from earlier work.

Regarding `CCCCc1nc(Cl)c(CO)n1Cc1ccc(-c2ccccc2-c2nnn[nH]2)cc1` [losartan, 2-butyl-4-chloro-1-[[2′-(1H-tetrazol-5-yl)[1,1′-biphenyl]-4-yl]methyl]-1H-imidazol-5-methanol], the “dissolution of losartan (in words)” value in series [1] (low pH (e.g., pH 1.2 or 2.0), gelation) is “very slowly dissolved”; in series [1] (purified water or relatively high pH (e.g., pH 6.8)), “easily dissolved”. Moreover, in series [2], the “reduction of Cmax of losartan after food ingestion” value is recorded as “about 10%”.
